Test results from patent publication US11420950B2, “Heterocyclicalkyl derivative compounds as selective histone deacetylase inhibitors and pharmaceutical compositions comprising the same” (Chong Kun Dang Pharmaceutical Corp., priority 2015, dated 2022).

Columns and labels:
HDAC6 human recombinant = molecular target: T1, HDAC6 human recombinant (Homo sapiens, UniProt Q9UBN7); test: HDAC6 enzyme inhibition, fluorimetric assay; type: biochemical; conditions: for IC50: 0.1-1000 nM tested, 37° C. 60 minutes, fluorescence, read-out: HDAC6 (μM), ability to inhibit the activity of HDAC enzyme; for selectivity for HDAC1/6 enzymes (HDAC1/HDAC6): ratio of HDAC1 to HDAC6 values
T1 construct: purchased Calbiochem 382180
T1 sequence (Q9UBN7 1-1215): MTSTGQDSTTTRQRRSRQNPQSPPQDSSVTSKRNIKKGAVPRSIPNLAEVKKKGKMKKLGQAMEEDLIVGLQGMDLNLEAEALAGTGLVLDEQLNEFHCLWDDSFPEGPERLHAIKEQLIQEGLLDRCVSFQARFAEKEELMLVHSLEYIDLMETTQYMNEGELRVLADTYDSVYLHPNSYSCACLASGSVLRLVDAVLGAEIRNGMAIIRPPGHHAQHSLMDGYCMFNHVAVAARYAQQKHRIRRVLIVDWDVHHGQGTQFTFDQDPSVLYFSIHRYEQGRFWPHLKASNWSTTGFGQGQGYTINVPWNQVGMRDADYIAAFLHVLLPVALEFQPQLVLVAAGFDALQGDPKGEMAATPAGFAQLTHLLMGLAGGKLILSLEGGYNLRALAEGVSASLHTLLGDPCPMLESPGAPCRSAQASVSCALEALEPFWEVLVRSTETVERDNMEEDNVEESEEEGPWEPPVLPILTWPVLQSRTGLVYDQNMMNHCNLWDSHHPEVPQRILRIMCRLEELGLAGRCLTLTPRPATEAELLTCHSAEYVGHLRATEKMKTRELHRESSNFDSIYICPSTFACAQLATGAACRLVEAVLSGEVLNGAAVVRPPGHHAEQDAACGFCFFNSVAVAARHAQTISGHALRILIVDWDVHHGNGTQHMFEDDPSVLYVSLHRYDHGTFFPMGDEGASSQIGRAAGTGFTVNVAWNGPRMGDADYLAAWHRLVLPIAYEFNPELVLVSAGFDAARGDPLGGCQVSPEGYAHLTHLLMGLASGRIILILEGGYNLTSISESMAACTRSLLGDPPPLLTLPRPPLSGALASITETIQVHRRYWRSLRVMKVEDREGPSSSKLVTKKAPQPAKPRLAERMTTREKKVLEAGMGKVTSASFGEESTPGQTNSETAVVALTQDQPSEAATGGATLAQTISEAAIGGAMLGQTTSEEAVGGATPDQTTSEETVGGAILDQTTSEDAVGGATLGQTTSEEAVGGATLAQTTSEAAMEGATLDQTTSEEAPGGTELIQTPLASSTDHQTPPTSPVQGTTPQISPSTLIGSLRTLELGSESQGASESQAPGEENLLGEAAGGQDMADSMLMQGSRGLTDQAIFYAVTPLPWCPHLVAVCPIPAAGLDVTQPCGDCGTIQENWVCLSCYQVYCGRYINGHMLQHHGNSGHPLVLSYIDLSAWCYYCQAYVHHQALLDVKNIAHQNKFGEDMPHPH
Procedure: (§1) Using a HDAC1 fluorimetric drug discovery assay kit (Enzolifesciences: BML-AK511) and a HDAC6 human recombinant (Calbiochem: 382180), the HDAC enzyme inhibitory abilities of test compounds were measured. It was treated with 100, 1000 and 10000 nM concentrations for HDAC1 assay, and 0.1, 1, 10, 100 and 1000 nM concentrations for HDAC6 assay. It was allowed to react at 37° C. for 60 minutes, and then was treated with a developer and allowed to react at 37° C. for 30 minutes, after which the fluorescence intensity (Ex 390 nm; Em 460 nm) was measured using FlexStatin3 (Molecular Device).

HDAC1 = molecular target: T2, HDAC1 (Homo sapiens, UniProt Q13547); test: HDAC1 enzyme inhibition, HDAC1 fluorimetric drug discovery assay kit; type: biochemical; conditions: 100-10000 nM tested, 37° C. 60 minutes, fluorescence; read-out: HDAC1 (μM), ability to inhibit the activity of HDAC enzyme
T2 construct: purchased Enzolifesciences BML-AK511
Procedure: as §1

[1] = system: adjuvant-induced arthritis models; test: Adjuvant-induced arthritis model, clinical score; type: in vivo; conditions: Lewis rat, vehicle 9-11
Procedure: […] of complete Freund's adjuvant (Chondrex) was injected intradermally into the tail of each Lewis rat to induce animal models. From one day before induction, the rats were divided into groups based on body weight, and the test compound was administered orally to the rats at various doses once a day, followed by evaluation.
Clinical score and body weight were measured twice a week from the day of first administration of the test compound. The clinical score was recorded as 0-4 points, and the total clinical score was evaluated after observing the foot of each rat (0: normal; and 16: the most severe edema).
The medicinal effect of the test compound in the arthritis models was evaluated based on the degree of joint edema, and a higher clinical score indicates a more severe degree of edema.

T2 sequence (Q13547 whole entry): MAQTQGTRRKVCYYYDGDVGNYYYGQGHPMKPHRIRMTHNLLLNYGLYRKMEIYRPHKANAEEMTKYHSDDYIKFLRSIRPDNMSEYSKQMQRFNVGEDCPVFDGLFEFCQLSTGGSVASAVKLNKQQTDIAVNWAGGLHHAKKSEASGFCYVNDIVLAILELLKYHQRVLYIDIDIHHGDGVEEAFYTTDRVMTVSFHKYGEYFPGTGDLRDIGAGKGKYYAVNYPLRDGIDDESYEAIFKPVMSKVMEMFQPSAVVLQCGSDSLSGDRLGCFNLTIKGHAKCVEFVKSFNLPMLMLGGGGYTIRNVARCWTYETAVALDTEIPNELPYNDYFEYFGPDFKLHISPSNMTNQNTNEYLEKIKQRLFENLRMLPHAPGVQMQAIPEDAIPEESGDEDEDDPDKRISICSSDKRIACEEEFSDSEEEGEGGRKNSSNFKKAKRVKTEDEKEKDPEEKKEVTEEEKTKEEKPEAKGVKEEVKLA

Row | IC50 (HDAC6 human recombinant) [µM] | IC50 (HDAC1) [µM] | selectivity for HDAC1/6 enzymes (HDAC1/HDAC6) (HDAC6 human recombinant) [fold] | Molecule | clinical score (joint edema, 0: normal; 16: the most severe edema) ([1]; 1 mg/kg orally once a day) | clinical score (joint edema, 0: normal; 16: the most severe edema) ([1]; 10 mg/kg orally once a day) | clinical score (joint edema, 0: normal; 16: the most severe edema) ([1]; 50 mg/kg orally once a day)
1 | 0.201 | 0.023 | – | O=C(CCCCCNC(=O)N1CC2(CCN(C(c3ccccc3)c3ccccc3)CC2)C1)NO [Compound 1763, 7-benzhydryl-N-(6-(hydroxyamino)-6-oxohexyl)-2,7-diazaspiro[3.5]nonane-2-carboxamide] | – | – | –
2 | 0.04 | 0.236 | – | O=C(CCCCCCNC(=O)N1CC2(CCN(C(c3ccccc3)c3ccccc3)CC2)C1)NO [Compound 1764, 7-benzhydryl-N-(7-(hydroxyamino)-7-oxoheptyl)-2,7-diazaspiro[3.5]nonane-2-carboxamide] | – | – | –
3 | 0.029 | 0.729 | – | O=C(CCCCCCNC(=O)N1CCN(C(c2cccc(F)c2)c2cccc(F)c2)CC1)NO [Compound 1648] | – | – | –
4 | 0.094 | 0.886 | – | O=C(CCCCCCNC(=O)N1CCC(N(c2ccccc2)c2ccc(F)cc2)CC1)NO [Compound 1734, 4-((4-fluorophenyl)(phenyl)amino)-N-(7-(hydroxyamino)-7-oxoheptyl)piperidine-1-carboxamide] | – | – | –
5 | 0.116 | 1.73 | – | O=C(CCCCCCNC(=O)N1CCC(N(c2ccccc2)c2cccc(F)c2)CC1)NO [Compound 1719, 4-((3-fluorophenyl)(phenyl)amino)-N-(7-(hydroxyamino)-7-oxoheptyl)piperidine-1-carboxamide] | – | – | –
6 | 0.456 | 0.236 | – | O=C(CCCCCNC(=O)C1CCN(C(c2ccccc2)c2ccccc2)CC1)NO [Compound 1316, 1-benzhydryl-N-(6-(hydroxyamino)-6-oxohexyl)piperidine-4-carboxamide] | – | – | –
7 | 0.336 | 0.023 | – | O=C(CCCCCCCNC(=O)C1CCN(C(c2ccccc2)c2ccccc2)CC1)NO [Compound 1317] | – | – | –
8 | 0.033 | 0.463 | – | O=C(CCCCCCNC(=O)N1CCC(C(F)(c2ccccc2)c2ccccc2)CC1)NO [Compound 1649, 4-(fluorodiphenylmethyl)-N-(7-(hydroxyamino)-7-oxoheptyl)piperidine-1-carboxamide] | – | – | –
9 | 0.019 | 0.466 | – | O=C(CCCCCCNC(=O)N1CCN(C(c2ccccc2F)c2ccccc2F)CC1)NO [Compound 1647, 4-(bis(2-fluorophenyl)methyl)-N-(7-(hydroxyamino)-7-oxoheptyl)piperazine-1-carboxamide] | – | – | –

Further lines, the molecule ahead of its results:

Row | Molecule | IC50 (HDAC6 human recombinant) [µM] | IC50 (HDAC1) [µM] | selectivity for HDAC1/6 enzymes (HDAC1/HDAC6) (HDAC6 human recombinant) [fold] | clinical score (joint edema, 0: normal; 16: the most severe edema) ([1]; 1 mg/kg orally once a day) | clinical score (joint edema, 0: normal; 16: the most severe edema) ([1]; 10 mg/kg orally once a day) | clinical score (joint edema, 0: normal; 16: the most severe edema) ([1]; 50 mg/kg orally once a day)
10 | C[C@@H]1CN(C(c2ccccc2)c2ccccc2)C[C@H](C)N1C(=O)NCCCCCCC(=O)NO [Compound 1188, (2S,6R)-4-benzhydryl-N-(7-(hydroxyamino)-7-oxoheptyl)-2,6-dimethylpiperazine-1-carboxyamide] | 0.014 | 1.68 | – | – | – | –
11 | CC(c1ccccc1)N1CCN(C(=O)NCCCCCCC(=O)NO)CC1 (stereo not drawn) [Compound 1241, N-(7-(hydroxyamino)-7-oxoheptyl)-4-(1-phenylethyl)piperazine-1-carboxamide] | 0.025 | 0.72 | – | – | – | –
12 | C[C@@H]1CN(C(c2ccccc2)c2ccccc2)CCN1C(=O)NCCCCCCC(=O)NO [Compound 1189, (R)-4-benzhydryl-N-(7-(hydroxyamino)-7-oxoheptyl)-2-methylpiperazine-1-carboxamide] | 0.025 | 0.84 | – | – | – | –
13 | CN(CCCCCCC(=O)NO)C(=O)N1CCN(C(c2ccccc2)c2ccccc2)CC1 [Compound 1213, 4-benzhydryl-N-(7-(hydroxyamino)-7-oxoheptyl)-N-methylpiperazine-1-carboxamide] | 0.044 | 0.704 | – | – | – | –
14 | O=C(CCCCCCCNC(=O)N1CCN(C(c2ccccc2)c2ccccc2)CC1)NO [Compound 1240, 4-benzhydryl-N-(8-(hydroxyamino)-8-oxoethyl)piperazine-1-carboxamide] | 0.07 | 0.41 | – | – | – | –
15 | O=C(CCCCCNC(=O)N1CCN(C(c2ccccc2)c2ccccc2)CC1)NO [Compound 1257, 4-benzhydryl-N-(6-(hydroxyamino)-6-oxohexyl)piperazine-1-carboxamide] | 0.063 | 0.159 | – | – | – | –
16 | O=C(CCCCCCNS(=O)(=O)N1CCC(C(O)(c2ccccc2)c2ccccc2)CC1)NO [Compound 1210, N-hydroxy-7-((4-(hydroxydiphenylmethyl)piperidine)-1-sulfonamido)heptanamide] | 0.07 | 1.19 | – | – | – | –
17 | O=C(CCCCCCNC(=O)N1CCN(C(c2ccccn2)c2ccccn2)CC1)NO [Compound 1222] | 0.085 | 0.71 | – | – | – | –
18 | O=C(CCCCCCNC(=O)N1CCN(C(c2ccc(Cl)cc2)c2ccc(Cl)cc2)CC1)NO [Compound 1224] | 0.087 | 3.96 | – | – | – | –
19 | O=C(CCCCCCNC(=O)N1CCC(C(O)(c2ccccc2)c2ccccc2)CC1)NO [Compound 1124, N-(7-(hydroxyamino)-7-oxoheptyl)-4-(hydroxydiphenylmethyl)piperidine-1-carboxamide] | 0.024 | 4.09 | 170 | – | – | –
20 | C[C@H]1CN(C(c2ccccc2)c2ccccc2)CCN1C(=O)NCCCCCCC(=O)NO [Compound 1190, (S)-4-benzhydryl-N-(7-(hydroxyamino)-7-oxoheptyl)-2-methylpiperazine-1-carboxamide] | 0.065 | 1.34 | – | – | – | –
21 | N-(7-(hydroxyamino)-7-oxoheptyl)-4-(phenyl(4-(trifluoromethyl)phenyl)amino)piperidine-1-carboxamie [Compound 1726] | 0.228 | 3.7 | – | – | – | –
22 | O=C(CCCCCCNC(=O)N1CCN(C(c2ccccc2)c2ccccc2)CC1)NO [Compound 1102, 4-benzhydryl-N-(7-(hydroxyamino)-7-oxoheptyl)piperazine-1-carboxamide] | 0.004 | 3.84 | 960 | 6-8 | 4-6 | 1-3
23 | O=C(CCCCCCNC(=O)N1CCN(C(c2ccc(F)cc2)c2ccc(F)cc2)CC1)NO [Compound 1223] | 0.073 | 1.16 | – | – | – | –
24 | O=C(CCCCCCNC(=O)C1CCN(C(c2ccccc2)c2ccccc2)CC1)NO [Compound 1209, 1-benzhydryl-N-(7-(hydroxyamino)-7-oxoheptyl)piperidine-4-carboxamide] | 0.006 | 1.16 | 193 | – | – | –
25 | CN(CCCCCCC(=O)NO)C(=O)C1CCN(C(c2ccccc2)c2ccccc2)CC1 [Compound 1256, 1-benzhydryl-N-(7-(hydroxyamino)-7-oxoheptyl)-N-methylpiperidine-4-carboxamide] | 0.038 | 0.08 | – | – | – | –
26 | CC(c1ccccc1)N1CCC(C(=O)NCCCCCCC(=O)NO)CC1 (stereo not drawn) [Compound 1243, N-(7-(hydroxyamino)-7-oxoheptyl)-1-(1-phenylethyl)piperidine-4-carboxamide] | 0.017 | 0.54 | – | – | – | –
27 | O=C(CCCCCCNC(=O)N1CCC(N(c2ccccc2)c2ccccc2)CC1)NO [Compound 1221, 4-(diphenylamino)-N-(7-(hydroxyamino)-7-oxoheptyl)piperidine-1-carboxamide] | 0.079 | 1.88 | – | – | – | –
